US11191790B2, “Biologically pure Faecalibacterium butyricigenerans strain, composition including the same and method for treating ulcerative colitis” (BGI SHENZHEN, priority 2016, dated 2021)

Test system: UC modeled mice (DSS-induced ulcerative colitis)
Assay: In vivo experiment in DSS-induced UC modeled mice
Set-up: species or system C57bl/6 mice
Experimental: With administration of AF52-21, saline or a positive drug, the therapeutic effect of Faecalibacterium butyricigenerans AF52-21 on the UC modeled mice was evaluated by observing body weight, mortality, fecal traits, occult/visual blood in stool, colon length, disease and activity index (DAI) and pathological parameters.
8 week-old C57bl/6 mice weighted 21 g±1 g in SPF grade were adaptively fed for one week. Then, 2% sodium dextran sulfate (DSS) was administered to the mice for 7 days to induce the UC modeled mice.
A total of 48 mice were randomly divided into four groups, with 12 mice in each group. The groups were as follows:
Group I: control group—normal mice without DSS induction;
Group II: UC modeled group—saline gavage after DSS induction;
Group III: UC treatment group—AF52-21 treatment after DSS induction;
Group IV: UC treatment group—positive drug (salicylazosulfapyridine, SASP) treatment after DSS induction.
UC modeled group: gavage with saline (0.85% NaCl).
AF52-21-treated group: administration with cultured AF52-21 in a stationary phase in a bacterial concentration of about 10^8 cfu/ml.
SASP-treated group: administration with 0.02 g/mL of aqueous SASP solution.
The mice in all groups were daily observed for food intake, spontaneous activities, body weight, fecal traits and occult/visual blood in stool. After DSS induction for 7 days, mice were treated according to the administration scheme in 4.3 for 2 weeks by daily gavage of 200 μL/mouse. After 14 days, mice in all groups were sacrificed for blood collection, colon collection for photographing and length-measuring, and collection of other organs for weighing. The colon was then stored in paraformaldehyde in a […] refrigerator.
The mice were given individual scores according to body weight, fecal traits and occult/visual blood in stool. The scoring criteria are as follows (Table 4).
The DAI is scored as the sum of the scores for body weight, fecal traits and occult blood/visual blood in stool.

[1] = daily gavage 200 μL/mouse, AF52-21 about 10^8 cfu/ml, SASP 0.02 g/mL
[2] = ratio of organ weight to body weight, x ± SD, after 14 days of treatment
[3] = sum of scores for body weight, fecal traits, occult/visual blood in stool, daily gavage 200 μL/mouse

O=C(O)c1cc(/N=N/c2ccc(S(=O)(=O)Nc3ccccn3)cc2)ccc1O [SASP, salicylazosulfapyridine]
Mice died during the entire experiment (12 mice in each group, 5 mice died in the UC modeled group): 2 mice
Body weight, DSS induction at Day 7 (UC modeled mice, after 7 days 2% DSS, before treatment): 28.52 ± 3.12 g
Body weight, DSS induction at Day 0 (UC modeled mice, before DSS induction and before treatment (baseline of the group)): 30.12 ± 2.25 g
colon length (after 14 days of treatment, UC modeled group 6.11 ± 0.90): 6.54 ± 0.71
Body weight, Treatment at Day 1 [1]: 26.51 ± 3.31 g
Body weight, Treatment at Day 7 [1]: 27.60 ± 3.46 g
Body weight, Treatment at Day 14 [1]: 29.98 ± 3.32 g
Weight gain/decrease rate (decrease rate of body weight, UC modeled group 8 ± 0.8% decrease): 0.4 ± 0.2% (decrease rate)
Colon histopathology (histological sections of mouse intestinal mucosa, FIG. 5, compared with the UC modeled group): reduced thickness of colon wall; and reduced number of inflammatory cells infiltrating in submucosa
Colon index [2]: 9.88 ± 2.76 mg/g
Kidney index [2]: 13.24 ± 1.74 mg/g
Liver index [2]: 41.56 ± 6.04 mg/g
Spleen index [2]: 6.24 ± 3.71 mg/g
Thymus index [2]: 1.10 ± 0.39 mg/g
DAI score, DSS induction for 7 days (sum of scores for body weight, fecal traits, occult/visual blood in stool, before treatment): 7.70 ± 2.85
DAI score, Treatment for 7 days [3]: 5.89 ± 2.21
DAI score, Treatment for 14 days [3]: 3.98 ± 1.38
